Experimental data reported in patent publication US11470828B2, “Rodent model of mood disorders” (REGENERON PHARMACEUTICALS, INC., priority 2019, dated 2022).
“And” between values parts separate entries of the source, which are not always exact repeats. Equal values may be shown once. Read-outs that look alike come from different tables or passages of the source.

Test system: GPR156^E533D/E533D mice
Conditions: for Effect on impaired swim phenotype (ability to perform 6-minute swim test): GPR156^E533D/E533D mice, Fluoxetine 10 mg/kg i.p. daily for 9 weeks
Description: Mice were placed in a 5 liter clear plastic beaker (25×18 cm diameter) filled with 4 liters of 23-25° C. tap water to ensure mice cannot touch the bottom of the flask even with their tail. Four animals were recorded simultaneously using an ANY-maze™ video-tracking system (Stoelting Co.). Data were recorded for 6 minutes. Flask were separated by 3 sided white plastic partitions (40 cm high×25 cm wide). Swim test was recorded for 6 minutes. Recordings were set up to start automatically if there was motion in the flask so that recorded times are specific for each individual mouse.
The 6 minutes recording was broken into three time segments (0-100 seconds, 101-200 second and last […]) to get a better sampling of behaviors across time.
Main data points analyzed for the FST were swim time, time mobile, time immobile, speed, distance traveled, rearing in the swim zone, mobile episodes and immobile episodes. Immobility is defined as 60% of total body mass being immobile for 2 seconds. This parameter allows for small movements of hind legs and feet to maintain balance and or to tread water without be considered actively swimming.
Mice were tested for a 6 minute forced swim test weekly before and after daily treatment with intraperitoneal injection of Fluoxetine 10 mg/kg for […]. Total time of swim test seconds) before and after daily treatment with Fluoxetine was recorded. […] Data were expressed as mean±SEM for each animal group.
To test whether Fluoxetine could reverse the impaired swim test phenotype, GPR156^hum/hum and GPR156^E533D/E533D mice were treated with Fluoxetine 10 mg/kg (i.p) daily for 6 days/week for 9 weeks. […] Therefore, mice were subjected to a swim test (baseline) and animals able to perform the 6 minutes swim test were excluded from the study. The remaining mice were then split into 2 groups, treated and untreated with Fluoxetine.
For this study, mice were subjected to a swim test (baseline) and animals able to perform the 6 minutes swim test were excluded from the study.

CNCCC(Oc1ccc(C(F)(F)F)cc1)c1ccccc1 (stereo not drawn) [Fluoxetine]
Percentage of mice achieving the swim test (GPR156^E533D/E533D mice (0/13 at baseline), Fluoxetine 10 mg/kg i.p. daily 6 days/week, after 9 weeks, males and females combined): 53% and 61%
Effect on impaired swim phenotype (ability to perform 6-minute swim test): improves the impaired swim phenotype
Effect on impaired swim phenotype (ability to perform 6-minute swim test) (listed as fluoxetine): improved on their ability to perform the swim test
Percentage of females able to successfully perform the 6 minutes swim test (female mice homozygous for E533D, Fluoxetine 10 mg/kg i.p. daily, after 4 weeks (5 out of 10)): 50%
Percentage of GPR156^E533D/E533D mice that achieved the test (following 4-9 weeks of treatment with Fluoxetine 10 mg/kg, i.p., daily, none able prior to treatment): Fluoxetine (10 mg/kg, i.p., daily), 53%
Percentage of males able to successfully perform the 6 minutes swim test (male mice homozygous for E533D, Fluoxetine 10 mg/kg i.p. daily, after 4 weeks (5 out of 8)): 62.5%
